Values of other authors, collected in article PMC4744661 (Diabetes/Metabolism Research and Reviews, 2015).

Test system: gastric emptying
Details: healthy volunteers and patients with T2DM

exenatide [exenatide BID]
effect on gastric emptying / acetaminophen exposure: substantially slowed gastric emptying

liraglutide (HAEGTFTSDVSSYLEGQAAKEFIAWLVRGRG; chains of the INN, looked up)
effect on gastric emptying / acetaminophen exposure: equivalent effects on acetaminophen exposure
